US9174948B2, “Desferrithiocin polyether analogues” (University of Florida Research Foundation, Inc., priority 2007, dated 2015)
Where two headings read alike, the source gives them in different places.

What was measured:
[1] = test system: Iron-Overloaded Cebus apella Primates; details: Cebus apella, po, 150 μmol/kg, historical data, cited from earlier work
[2] = test system: Non-Iron-Overloaded Rodents; details: rats, po, 300 μmol/kg, historical data, cited from earlier work
[3] = test system: Non-Iron-Overloaded Rodents; assay: Chelator-induced iron clearance in non-iron-overloaded, bile duct-cannulated rats; type: in vivo, rat (male Sprague-Dawley); details: po, 300 μmol/kg
From the text: Chelator-Induced Iron Clearance in Non-Iron-Overloaded Rodents. […] J. Med. Chem. 2006, 49, 2772-2783]. Recall that iron-clearing efficiency (ICE) is defined as (net iron excretion)/(total iron-binding capacity of the chelator), expressed as a percent. The relative ICE values of compounds 1 and 2 were in keeping with their log Papp values: the more lipophilic, the larger log Papp, the more efficient the chelator. […] However, the ICE trend was in keeping with the biliary ferrokinetics (FIG. 3) and liver concentration of the chelators, for example, 3>1 (FIG. 4).
Cannulation of Bile Duct in Non-Iron-Overloaded Rats has been described previously. […]. […] The urine sample(s) was taken at 24 h intervals. Sample collection and handling are as previously described [Bergeron, R. J., Streiff, R. R., Creary, E. A., Daniels, R. D., Jr., King, W., Luchetta, G., Wiegand, J., Moerker, T. and Peter, H. H. A Comparative Study of the Iron-Clearing Properties of Desferrithiocin Analogues with Desferrioxamine B in a Cebus Monkey Model. Blood 1993, 81, 2166-2173; Bergeron, R. J., Streiff, R. R., Wiegand, J., Vinson, J. R. T., Luchetta, G., Evans, K. M., Peter, H. and Jenny, H.-B. A Comparative Evaluation of Iron Clearance Models. Ann. N.Y. Acad. Sci. 1990, 612, 378-393].
(§1) In the iron-clearing experiments, the rats were given a single 300 μmol/kg dose of drugs 1-9 orally (po).
(§2) J. Med. Chem. 1999, 42, 2432-2440].

[4] = test system: Iron-Overloaded Cebus apella Primates; assay: Chelator-induced iron clearance in iron-overloaded Cebus apella primates; type: in vivo; details: po, 75 μmol/kg
From the text: Chelator-Induced Iron Clearance in Iron-Overloaded Cebus apella Primates. The iron-clearance data for all three sets of ligands are presented (Table 2). […] J. Med. Chem. 2003, 46, 1470-1477]>1 (16.8±7.2%) [Bergeron, R. J., Wiegand, J., McManis, J. S., McCosar, B. H., Weimar, W. R., Brittenham, G. M. and Smith, R. E. Effects of C-4 Stereochemistry and C-4′ Hydroxylation on the Iron Clearing Efficiency and Toxicity of Desferrithiocin Analogues. J. Med. Chem. 1999, 42, 2432-2440], the increase is not significant. Although (S)-4′-(HO)-DADFT-PE (3) is the least lipophilic chelator in the 1-3 series, it is just as efficient (ICE, 25.4±7.4%) [Bergeron, R. J., Wiegand, J., McManis, J. S., Vinson, J. R. T., Yao, H., Bharti, N. and Rocca, J. R. (S)-4,5-Dihydro-2-(2-hydroxy-4-hydroxyphenyl)-4-methyl-4-thiazolecarboxylic Acid Polyethers: A Solution to Nephrotoxicity.
The monkeys (3.5-4 kg) were iron overloaded with intravenous iron dextran as specified in earlier publications to provide about 500 mg of iron per kg of body weight [Bergeron, R. J., Streiff, R. R., Wiegand, J., Luchetta, G., Creary, E. A. and Peter, H. H. A Comparison of the Iron-Clearing Properties of 1,2-Dimethyl-3-hydroxypyrid-4-one, 1,2-Diethyl-3-hydroxypyrid-4-one, and Deferoxamine. Blood 1992, 79, 1882-1890]; the serum transferrin iron saturation rose to between 70 and 80%. At least 20 half-lives, 60 d [Wood, J. K., Milner, P. F. and Pathak, U. N. The Metabolism of Iron-dextran Given as a Total-dose Infusion to Iron Deficient Jamaican Subjects. Br. J. Haematol. 1968, 14, 119-129], elapsed before any of the animals were used in experiments evaluating iron-chelating agents.
Fecal and urine samples were collected at 24-h intervals and processed as described previously [Bergeron, R. J., Streiff, R. R., Creary, E. A., Daniels, R. D., Jr., King, W., Luchetta, G., Wiegand, J., Moerker, T. and Peter, H. H. A Comparative Study of the Iron-Clearing Properties of Desferrithiocin Analogues with Desferrioxamine B in a Cebus Monkey Model. Blood 1993, 81, 2166-2173; Bergeron, R. J., Streiff, R. R., Wiegand, J., Vinson, J. R. T., Luchetta, G., Evans, K. M., Peter, H. and Jenny, H.-B. A Comparative Evaluation of Iron Clearance Models. Ann. N.Y. Acad. Sci. 1990, 612, 378-393; Bergeron, R. J., Wiegand, J. and Brittenham, G. M. HBED: A Potential Alternative to Deferoxamine for Iron-Chelating Therapy. Blood 1998, 91, 1446-1452]. Briefly, the collections began 4 d prior to the administration of the test drug and continued for an additional 5 d after the drug was given. Iron concentrations were determined by flame atomic absorption spectroscopy as presented in other publications [Bergeron, R. J., Streiff, R. R., Wiegand, J., Vinson, J. R. T., Luchetta, G., Evans, K. M., Peter, H. and Jenny, H.-B. A Comparative Evaluation of Iron Clearance Models. Ann. N.Y. Acad. Sci. 1990, 612, 378-393; Bergeron, R. J., Wiegand, J., Wollenweber, M., McManis, J. S., Algee, S. E. and Ratliff-Thompson, K. Synthesis and Biological Evaluation of Naphthyldesferrithiocin Iron Chelators. J. Med. Chem. 1996, 39, 1575-1581].
as §1, §2

SMILES	Iron-Clearing Efficiency (%) [1] [%]	Iron-Clearing Efficiency (%) [2] [%]	relative percentages of the iron excreted in the stool and urine [1]	also measured
C[C@]1(C(=O)O)CSC(c2cc(O)ccc2O)=N1 [Compound 4, (S)-2-(2,5-dihydroxyphenyl)-4,5-dihydro-4-methyl-4-thiazolecarboxylic acid]	12.6±3.0	1.0±0.9	–	–
COc1ccc(O)c(C2=N[C@@](C)(C(=O)O)CS2)c1 [Compound 5, (S)-4,5-dihydro-2-(2-hydroxy-5-methoxyphenyl)-4-methyl-4-thiazolecarboxylic acid]	18.9±2.3	6.3±1.2	–	–
COc1cccc(C2=N[C@@](C)(C(=O)O)CS2)c1O [Compound 8]	22.5±7.1	–	–	Iron-Clearing Efficiency (%) ([3]; 48 h sample collection period): 12.4±3.5%
C[C@]1(C(=O)O)CSC(c2ccc(O)cc2O)=N1 [drawing 3]	–	1.1 ± 0.8	–	relative percentages of the iron excreted in the bile and urine [2]: 100/0
COc1ccc(C2=N[C@@](C)(C(=O)O)CS2)c(O)c1 [drawing 4]	–	6.6 ± 2.8	–	relative percentages of the iron excreted in the bile and urine [2]: 98/2
COCCOCCOCCOc1ccc(C2=N[C@@](C)(C(=O)O)CS2)c(O)c1 [drawing 5]	–	5.5 ± 1.9	–	relative percentages of the iron excreted in the bile and urine [2]: 90/10
C[C@]1(C(=O)O)CSC(c2cc(O)ccc2O)=N1 [drawing 6]	–	1.0 ± 0.9	–	relative percentages of the iron excreted in the bile and urine [2]: 99/1
COc1ccc(O)c(C2=N[C@@](C)(C(=O)O)CS2)c1 [drawing 7]	–	6.3 ± 1.2	–	relative percentages of the iron excreted in the bile and urine [2]: 95/5
COCCOCCOCCOc1ccc(O)c(C2=N[C@@](C)(C(=O)O)CS2)c1 [drawing 8]	–	–	–	Iron-Clearing Efficiency (%) [3]: 8.0 ± 1.8%; relative percentages of the iron excreted in the bile and urine [3]: 98/2
C[C@]1(C(=O)O)CSC(c2cccc(O)c2O)=N1 [drawing 9]	–	–	–	Iron-Clearing Efficiency (%) [3]: 4.6 ± 0.9%; relative percentages of the iron excreted in the bile and urine [3]: 98/2
COc1cccc(C2=N[C@@](C)(C(=O)O)CS2)c1O [drawing 10]	–	–	–	Iron-Clearing Efficiency (%) ([3]; 48 h sample collection period): 12.4 ± 3.5%; relative percentages of the iron excreted in the bile and urine ([3]; 48 h sample collection period): 99/1
COCCOCCOCCOc1cccc(C2=N[C@@](C)(C(=O)O)CS2)c1O [drawing 11]	–	–	–	Iron-Clearing Efficiency (%) ([3]; 48 h sample collection period): 10.6 ± 4.4%; relative percentages of the iron excreted in the bile and urine ([3]; 48 h sample collection period): 95/5
C[C@]1(C(=O)O)CSC(c2ccc(O)cc2O)=N1 [drawing 12]	16.8 ± 7.2	–	88/12	–
COc1ccc(C2=N[C@@](C)(C(=O)O)CS2)c(O)c1 [drawing 13]	24.4 ± 10.8	–	91/9	–
COCCOCCOCCOc1ccc(C2=N[C@@](C)(C(=O)O)CS2)c(O)c1 [drawing 14]	25.4 ± 7.4	–	96/4	–
C[C@]1(C(=O)O)CSC(c2cc(O)ccc2O)=N1 [drawing 15]	12.6 ± 3.0	–	88/12	–
COc1ccc(O)c(C2=N[C@@](C)(C(=O)O)CS2)c1 [drawing 16]	18.9 ± 2.3	–	94/6	–
COCCOCCOCCOc1ccc(O)c(C2=N[C@@](C)(C(=O)O)CS2)c1 [drawing 17]	–	–	–	Iron-Clearing Efficiency (%) [4]: 8.1 ± 2.8%; relative percentages of the iron excreted in the stool and urine [4]: 56/44
C[C@]1(C(=O)O)CSC(c2cccc(O)c2O)=N1 [drawing 18]	23.1 ± 5.9	–	83/17	–
COc1cccc(C2=N[C@@](C)(C(=O)O)CS2)c1O [drawing 19]	22.5 ± 7.1	–	91/9	–
COCCOCCOCCOc1cccc(C2=N[C@@](C)(C(=O)O)CS2)c1O [drawing 20]	–	–	–	Iron-Clearing Efficiency (%) [4]: 24.5 ± 7.6%; relative percentages of the iron excreted in the stool and urine [4]: 72/28
